According to patent US11607454B2, “Devices and processes for Cherenkov-activated nuclear-targeted photodynamic therapy” (UNIVERSITY HEALTH NETWORK, priority 2016, dated 2023):

Legend:
[1] = test system: Pancreatic cells (BxPC-3); assay: phospho-gamma H2AX immunofluorescence assay of DNA damage after 18 MV X-ray irradiation generating Cherenkov light; format: cell-based; conditions: BxPC-3 cells, 4 micrograms per ml, 6 h incubation, 10 Gy X-ray, read 30 minutes after irradiation, +/- 1 standard deviation
Procedure: Following preparation of the nuclear-targeted copolymer-photosensitizer micelles (NPs) as above, tests were carried out of the effect on pancreatic cancer cells in tissue culture (in vitro) of X-ray irradiation under conditions that generate Cherenkov light. Pancreatic cells (BxPC-3: ATCC, VA, USA) were selected since treatment of pancreatic cancer is one example of how the current invention might be applied to address an unmet clinical need for a minimally invasive therapy for this highly fatal disease where conventional treatments such as radiation or chemotherapy are inadequate.
Cells were incubated with NPs with water as the vehicle. […]
At 30 minutes after irradiation, the damage to DNA in the cells was measured using phospho-gamma H2AX immunofluorescence assay, similar to that used for example by Fraser et al. (2012). […] The fluorescence was imaged on a confocal fluorescence microscope where the red fluorescence (488+/−10 nm excitation, >505 nm detection) corresponding to DNA double strand breaks could be visualized on the […] DAPI fluorescence background (405+/−10 nm excitation, 460+/−25 nm detection) and the intensity quantified. The red fluorescence intensity counts were integrated over 10-18 cells for each treatment condition. […]

cells in vitro = conditions: conjugation to branched peptides (loligomers) with nuclear-targeting sequences; cited from earlier work

C1=Cc2nc1c(-c1ccccc1)c1nc(c(-c3ccccc3)c3ccc([nH]3)c(-c3ccccc3)c3ccc([nH]3)c2-c2ccccc2)C=C1 [TPP, tetraphenyl porphyrin]
Mean fluorescence intensity counts ([1]; Cherenkov blocked (blackout material)): 54.8 +/− 6.0 counts | Mean fluorescence intensity counts ([1]; Cherenkov unblocked): 49.5 +/− 6.7 counts

chlorine 6
reduction of the required dose of photosensitizer by nuclear localization (cells in vitro): greater than 100 fold
